We go through eight compounds from PubChem BioAssay (NCI).

Common to all, as to test: DTP human tumour cell line panel, 48 h
Assay [1] has as its system MDA-MB-231 breast.
Assay [2] concerns SR leukemia.
Assay [3] deals with HCT-15 colon.
In assay [4] the test system is KM12 colon.
Assay [5] concerns A498 renal.
Assay [6] deals with CAKI-1 renal.
The test system of assay [7] is M14 melanoma.
Assay [8] deals with SNB-75 CNS.
Assay [9] has as its system HCC-2998 colon.
Assay [10] relates to COLO 205 colon.

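Assay format: 96-well plates, 48-hour exposure. GI50 = concentration required for 50% inhibition of growth. TGI denotes the concentration required for complete inhibition of growth.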 Some results are limits rather than exact numbers.

One may read the TGI as the concentration giving total growth inhibition. With `OC(COc1ccccc1)CN1CCCCC1` (stereo not given), the TGI in assay [1], in assay [2], in assay [3], in [4], in [5] and in assay [6] was over 100000 nM throughout. The total growth inhibition concentration (TGI) in assay [7], in [8], in [9] and in assay [10] was over 100000 nM each time.
By GI50 is commonly meant the concentration at which growth is held to half of that of the control. Regarding `COc1ccc2nc3cccc([N+](=O)[O-])c3c(NCCNCCN(C)C)c2c1`, the GI50 in assay [1] was 658 nM; in assay [2] it was 32.9 nM; in assay [3] it was 131 nM; in [4] it was 142 nM; in assay [5], 201 nM; in assay [6], 79.7 nM. For the same compound, the GI50 in assay [7] was 73.4 nM; in [8], 158 nM; in [9], 26.9 nM; in [10], 27.7 nM. In addition, the concentration for total growth inhibition (TGI) in assay [1] was 4170 nM; in assay [4] it was 414 nM; in assay [5] it was 450 nM; in assay [6], 616 nM; in assay [7], 208 nM; in assay [8], 386 nM. Also, the TGI was determined as 115 nM in assay [9] and 94.9 nM in assay [10].
As to `COc1ccc2c(c1)O/C(=C\c1cccc(OCC(=O)Nc3nc(C)c(C)s3)c1)C2=O`, the GI50 was 950 nM in assay [1]; 537 nM in assay [2]; 6760 nM in assay [3]; 1020 nM in assay [4]; 7820 nM in assay [5]; 1060 nM in assay [6]. Besides, the GI50 is 175 nM in assay [7], 862 nM in assay [8], 9430 nM in [9] and 22300 nM in [10]. For the same compound, the TGI was 1370 nM in [2]; over 100000 nM in assay [3]; over 68400 nM in assay [5]; 368 nM in assay [7]; 6510 nM in [8]; over 100000 nM in assay [9]. Also, the TGI in [10] is over 100000 nM.
As for `O=C(/C=C\n1cnc(-c2cc(C(F)(F)F)cc(C(F)(F)F)c2)n1)N1CC(F)(F)C1`, the GI50 in assay [1] was 305 nM; in assay [2], 151 nM; in assay [3] it was 651 nM; in assay [4], 2410 nM; in assay [5], 37.5 nM; in assay [6], 288 nM. Further, the GI50 in assay [7] is 1360 nM; in assay [8] it was 432 nM; in [9] it was 729 nM; in [10] it was 351 nM. Further, the TGI in assay [1] is 4520 nM; in assay [2], over 25000 nM; in assay [3], 4860 nM; in assay [4], over 25000 nM; in assay [5], 452 nM; in assay [6], 6840 nM. The TGI came to 6570 nM in assay [7], 6440 nM in assay [8], 4420 nM in [9] and 4140 nM in assay [10].
For the compound `Cc1nc(Sc2nc3ccc([N+](=O)[O-])cc3s2)sc1C`, the GI50 in [1] is 1840 nM; in assay [2], 367 nM; in assay [3], 731 nM; in [4] it was 3890 nM; in assay [5], 1590 nM; in [6] it was 1900 nM. For the same compound, the GI50 was 1820 nM in [7], 2480 nM in [8], 12500 nM in assay [9] and 1930 nM in assay [10]. Moreover, the concentration for total growth inhibition (TGI) in assay [1] was 11000 nM; in [2], 5940 nM; in assay [3], 3510 nM; in [4], 14600 nM; in assay [5] it was 9230 nM; in [6], 8030 nM. Also, the TGI in assay [7] is 4140 nM; in assay [8] it was 12300 nM; in assay [9], 25200 nM; in [10], 6070 nM.
As for `NCCOc1ncccc1/C=C1\c2ccccc2-c2ccc([N+](=O)[O-])cc21`, the GI50 is 206 nM in assay [1]; under 10 nM in assay [2]; 26.6 nM in [3]; 110 nM in [4]; 158 nM in [5]; 28.3 nM in assay [6]. Also, the 50% growth inhibitory concentration (GI50) was 43.9 nM in assay [7], 48.8 nM in [8], 137 nM in assay [9] and 137 nM in [10]. For the same compound, the TGI in assay [1] was determined as 613 nM; in assay [2], 1100 nM; in [3], 871 nM; in assay [4] it was 546 nM; in assay [5], 578 nM; in assay [6], 231 nM. In addition, the total growth inhibition concentration (TGI) in assay [7] stood at 322 nM; in [8], 437 nM; in assay [9] it was 322 nM; in [10] it was 343 nM.
As to `Cn1cc(C2=C(c3ccccc3C(F)(F)F)C(=O)NC2=O)c2ccccc21`, the GI50 in assay [1] was 17400 nM; in [2], 6360 nM; in assay [3], 9590 nM; in assay [4], 6970 nM; in [5], 3900 nM; in [6], 6600 nM. In addition, the GI50 in [7] is 19800 nM; in [8], over 14000 nM; in [9], over 19600 nM; in assay [10], 6420 nM. Besides, the TGI in assay [1] is over 25000 nM; in assay [2] it was over 22200 nM; in assay [3] it was over 25000 nM; in assay [4] it was over 25000 nM; in [5], 17500 nM; in [6] it was over 25000 nM. The TGI in [7], in [8], in assay [9] and in assay [10] was over 25000 nM each time.
On to `CCOc1ccc(N=Cc2ccnc3ccccc23)cc1`, for which the concentration for total growth inhibition (TGI) is over 75900 nM in assay [1]; 6760 nM in [2]; over 87900 nM in assay [3]; over 89900 nM in [4]; over 100000 nM in assay [5]; over 100000 nM in assay [6]. For the same compound, the TGI was 80000 nM in assay [7], over 92200 nM in [8], 81400 nM in assay [9] and over 100000 nM in assay [10].
